# Measured values published in patent US20250019372A1, “CRYSTALLINE FORMS OF A RIPK1 INHIBITOR” (RIGEL PHARMACEUTICALS, INC., priority 2021, published 2025).
# Assay: Relative thermodynamic stability of the crystalline forms
# Assay type: physicochemical
# Settings: compared to the other identified Forms A, B, and C; temperature range of RT to 50° C.
compound,measurement,value
"CN1C(=O)[C@@H](NC(=O)c2n[nH]c(Cc3ccccc3)n2)COc2ccc(C#CC(C)(C)O)cc21 [Form D, (S)-5-benzyl-N-(7-(3-hydroxy-3-methylbut-1-yn-1-yl)-5-methyl-4-oxo-2,3,4,5-tetrahydrobenzo[b][1,4]oxazepin-3-yl)-1H-1,2,4-triazole-3-carboxamide]",thermodynamic stability of the crystalline form,most thermodynamically stable crystalline form
